In patent publication US9771389B2, “Tylosin derivatives and method for preparation thereof” (BAYER ANIMAL HEALTH GMBH, priority 2013, dated 2017):
In brackets after ≈: the same amount, converted by molar mass. One block for each compound: values may come before it.

What was measured:
[1] = system: M. hemolytica KB346 (Tilmicosin-low sensitivity strain); assay: Paper disc assay, M. hemolytica KB346; format: cell-based, Mannhemia hemolytica
Method: (§1) (1) Antibacterial activities against Mannheimia and Pasteurella were determined by the following steps: • 1) M. hemolytica KB345 (Tilmicosin-sensitivity strain) and M. hemolytica KB346 (Tilmicosin-low sensitivity strain) were provided. KB 345 strain stored at −80° C. was seeded to BHIB agar medium (10 mL) by using Microbank beads (Pro-Lab) and platinum nail. After statically incubating the KB 345 strain for 24 hours at 37° C., it was seeded to maintaining slant BHIB agar medium (7 mL) by using platinum loop, further statically incubated for 24 hours at 37° C. to obtain slant. One platinum loop of KB 345 strain stored at the slant was inoculated into a large test tube charged with BHIB liquid medium (10 mL) and then incubated for 24 hours at 37° C. with shaking. • 2) A paper disc (ADVANTEC, Φ:6 mm) was impregnated with a solution of test compound and dried under reduced pressure. • 3) To a melted BHIB agar medium was inoculated 1% of the broth obtained from step 1) above to prepare a test plate. After the medium set, the paper disc prepared in step 2) above was put on the plate and it was incubated at 37° C. • 4) After one day, the inhibition zone diameter and clarity (A to E) were determined. For KB346 strain, the same procedures were repeated.

[2] = system: M. hemolytica KB345 (Tilmicosin-sensitivity strain); assay: Paper disc assay, M. hemolytica KB345; format: cell-based, Mannhemia hemolytica
Method: as §1

[3] = system: coagulase negative staphylococci (CNS); assay: MIC50 mastitis pathogens, broth dilution; format: cell-based; conditions: 7 to 12 isolates, 24 hours
From the text: (§2) The activity of several compounds against bacterial mastitis pathogens has been tested under in-vitro conditions according to a recognized procedure (CLSI, document […]-A3, 2008). In this test 7 to 12 representative bacteria belonging to 7 bacterial species that typically cause mastitis in dairy cattle, i.e. Staphylococcus aureus, coagulase negative staphylococci (CNS), Streptococcus uberis, Streptococus dysgalactiae, Streptococcus agalactiae, Arcanobacterium pyogenes and Escherichia coli, were exposed to two-fold dilutions of the test compounds. After 24 hours of incubation the concentration that inhibited the growth of this bacteria was determined. It could be shown that all these bacterial mastitis pathogens were highly susceptible to the test compounds.

Staphylococcus aureus = assay: MIC50 mastitis pathogens, broth dilution; format: cell-based; conditions: S. aureus, 7 to 12 isolates, 24 hours
From the text: as §2

Streptococcus agalactiae = assay: MIC50 mastitis pathogens, broth dilution; format: cell-based; conditions: Str agalactiae, 7 to 12 isolates, 24 hours
From the text: as §2

Arcanobacterium pyogenes = assay: MIC50 mastitis pathogens, broth dilution; format: cell-based; conditions: Trueperella pyogenes, A. pyogenes, 7 to 12 isolates, 24 hours
From the text: as §2

Streptococcus uberis = assay: MIC50 mastitis pathogens, broth dilution; format: cell-based; conditions: Str uberis, 7 to 12 isolates, 24 hours
From the text: as §2

Escherichia coli = assay: MIC50 mastitis pathogens, broth dilution; format: cell-based; conditions: E. coli, 7 to 12 isolates, 24 hours
From the text: as §2

[4] = system: Streptococus dysgalactiae; assay: MIC50 mastitis pathogens, broth dilution; format: cell-based; conditions: Str dysgalactiae, 7 to 12 isolates, 24 hours
From the text: as §2

[5] = system: Bacillus subtilis ATCC6633; assay: Paper disc assay, Bacillus subtilis; format: cell-based; conditions: S
Method: (§3) (2) Antibacterial activities against other bacteria were determined with Micrococcus luteus ATCC9341 (1), Bacillus subtilis […] (s), Escherichia coli NIHJ (c), Xanthomonas campestris KB88 (X), Mucor racemosus IFO 4581 (Mu) and Candida albicans ATCC 64548 (Ca).
(§4) Bacillus subtilis ATCC6633 was incubated in Davis synthetic medium and then the seed broth was combined with the medium in the ratio of 1:99 to obtain a test plate. Micrococcus luteus ATCC9341, Escherichia coli NIHJ and Xanthomonas campestris KB88 were respectively incubated in Nutrient agar medium and inoculated at 0.2%, 0.5% and 1.0%. Mucor racemosus IFO 4581 and Candida albicans ATCC 64548 were respectively incubated in GY agar medium and then inoculated at 0.3% and 0.2%.
(§5) A paper disc (ADVANTEC, Φ:6 mm) was impregnated with a solution of test compound and dried under reduced pressure. The paper disc was put on the test plate and it was incubated for 24 hours at 37° C. After incubation, the inhibition zone diameter and clarity (A to E) were determined.

[6] = system: Xanthomonas campestris KB88; assay: Paper disc assay, Xanthomonas campestris; format: cell-based; conditions: X
Method: as §3, §4, §5

[7] = system: Micrococcus luteus ATCC9341; assay: Paper disc assay, Micrococcus luteus; format: cell-based; conditions: column 1
Method: as §3, §4, §5

SMILES: CCC1OC(=O)CC(O)C(C)C(OC2OC(C)C(O)C(N(C)C)C2O)C(CCCl)CC(C)C(=O)C=CC(C)=CC1COC1OC(C)C(O)C(OC)C1OC (centres unmarked) [YT8, 20-chloro-20-deoxodesmycosin]
- Inhibition zone ([1]; 30 mg/6 mm disk, Table 3): 11.0 mm
- Inhibition zone ([1]; 100 mg/6 mm disk, Table 3): 14.5 mm
- Inhibition zone ([2]; 10 mg/6 mm disk, Table 2): 12.5 mm
- Inhibition zone ([2]; 30 mg/6 mm disk, Table 2): 18.0 mm
- Inhibition zone ([2]; 100 mg/6 mm disk, Table 2): 20.0 mm

SMILES: CCC1OC(=O)CC(O)C(C)C(OC2OC(C)C(O)C(N(C)C)C2O)C(CC=O)CC(C)C(=O)C=CC(C)=CC1CN=[N+]=[N-] (centres unmarked) [YT107, 23-azido-23-deoxo-5-O-mycaminosyltylonolide]
- Inhibition zone ([1]; 30 mg/6 mm disk, Table 5): 10.5 mm
- Inhibition zone ([1]; 100 mg/6 mm disk, Table 5): 15.0 mm
- Inhibition zone ([2]; 3 mg/6 mm disk, Table 4): 12.0 mm
- Inhibition zone ([2]; 10 mg/6 mm disk, Table 4): 16.0 mm
- Inhibition zone ([2]; 30 mg/6 mm disk, Table 4): 18.0 mm
- Inhibition zone ([2]; 100 mg/6 mm disk, Table 4): 21.5 mm

- MIC50 [3]: 0.25 µg/mL (≈ 0.281 µM)
- MIC50 (Staphylococcus aureus): 0.25 µg/mL (≈ 0.281 µM)
- MIC50 (Streptococcus agalactiae): ≤ 0.015 µg/mL
- MIC50 (Arcanobacterium pyogenes): ≤ 0.015 µg/mL
- MIC50 (Streptococcus uberis): ≤ 0.015 µg/mL
- MIC50 (Escherichia coli): 4 µg/mL (≈ 4.5 µM)
- MIC50 [4]: ≤ 0.015 µg/mL
SMILES: CC[C@H]1OC(=O)C[C@@H](O)[C@H](C)[C@@H](O[C@@H]2OC(C)[C@@H](O)C(N(C)C)C2O)[C@@H](CCN(C)Cc2cn(-c3cnc4ccccc4c3)nn2)C[C@@H](C)C(=O)/C=C/C(C)=C/[C@@H]1CN1CCCCC1 (some centres unmarked) [YT769]

SMILES: CC[C@H]1OC(=O)C[C@@H](O)[C@H](C)[C@@H](O[C@@H]2O[C@H](C)[C@@H](O)[C@H](N(C)C)[C@H]2O)[C@@H](CC=O)C[C@@H](C)C(=O)/C=C/C(C)=C/[C@@H]1CO[C@@H]1O[C@H](C)[C@@H](O)[C@@H](OC)[C@H]1OC [YT6, Desmycosin]
- Inhibition zone ([1]; 3 mg/6 mm disk, Table 3): 8.5 mm
- Inhibition zone ([1]; 10 mg/6 mm disk, Table 3): 13.5 mm
- Inhibition zone ([1]; 30 mg/6 mm disk, Table 3): 17.5 mm
- Inhibition zone ([1]; 100 mg/6 mm disk, Table 3): 21.0 mm
- Inhibition zone ([2]; 30 mg/6 mm disk, Table 2): 10.5 mm

- MIC50 [3]: 0.25 µg/mL (≈ 0.31 µM)
- MIC50 (Staphylococcus aureus): 0.5 µg/mL (≈ 0.62 µM)
- MIC50 (Streptococcus agalactiae): 0.03 µg/mL (≈ 0.0372 µM)
- MIC50 (Arcanobacterium pyogenes): 0.008 µg/mL (≈ 0.00991 µM)
- MIC50 (Streptococcus uberis): 0.03 µg/mL (≈ 0.0372 µM)
- MIC50 (Escherichia coli): 8 µg/mL (≈ 9.91 µM)
- MIC50 [4]: 0.12 µg/mL (≈ 0.149 µM)
SMILES: CC[C@H]1OC(=O)C[C@@H](O)[C@H](C)[C@@H](O[C@@H]2OC(C)[C@@H](O)C(N(C)C)C2O)[C@@H](CCNCc2cn(-c3cnc4ccccc4c3)nn2)C[C@@H](C)C(=O)/C=C/C(C)=C/[C@@H]1CO (some centres unmarked) [YT739]

SMILES: CC[C@H]1OC(=O)C[C@@H](O)[C@H](C)[C@@H](O[C@@H]2OC(C)[C@@H](O)C(N(C)C)C2O)[C@@H](CCn2cc(-c3ccccc3)nn2)C[C@@H](C)C(=O)/C=C/C(C)=C/[C@@H]1CO[C@@H]1OC(C)[C@@H](O)C(OC)C1OC (some centres unmarked) [YT13, 20-(4-phenyl-1H-1,2,3-triazol-1-yl)-20-deoxodesmycosin]
- Inhibition zone ([5]; 0.1 mg/6 mm disc): 9.5 mm
- Inhibition zone ([5]; 1 mg/6 mm disc): 12 mm
- Inhibition zone ([5]; 10 mg/6 mm disc): 15.5 mm
- Inhibition zone ([6]; 0.1 mg/6 mm disc): 8 mm
- Inhibition zone ([6]; 1 mg/6 mm disc): 17 mm
- Inhibition zone ([6]; 10 mg/6 mm disc): 23.5 mm
- Inhibition zone ([7]; 0.1 mg/6 mm disc): 15 mm
- Inhibition zone ([7]; 1 mg/6 mm disc): 21.5 mm
- Inhibition zone ([7]; 10 mg/6 mm disc): 27.5 mm

SMILES: CCC1OC(=O)CC(O)C(C)C(OC2OC(C)C(O)C(N(C)C)C2O)C(CCN=[N+]=[N-])CC(C)C(=O)C=CC(C)=CC1COC1OC(C)C(O)C(OC)C1OC (centres unmarked) [YT11, 20-azido-20-deoxodesmycosin]
- Inhibition zone ([1]; 100 mg/6 mm disk, Table 3): 11.0 mm
- Inhibition zone ([2]; 3 mg/6 mm disk, Table 2): 10.0 mm
- Inhibition zone ([2]; 10 mg/6 mm disk, Table 2): 13.0 mm
- Inhibition zone ([2]; 30 mg/6 mm disk, Table 2): 16.0 mm
- Inhibition zone ([2]; 100 mg/6 mm disk, Table 2): 18.0 mm
